The source of these data is patent US4632928A, “Pyrazole derivatives with an ergoline skeleton, their acid addition salts, and a process for the preparation thereof” (Richter Gedeon Vegyeszeti Gyar R.T., priority 1983, dated 1986).

Data set [1] deals with T1, PGF2alpha receptor (Rattus norvegicus, UniProt P43118).
T1 construct: in the isolated rat uterus; from tissue; host or cells: isolated rat uterus
In words: PGF2alpha antagonist effect in vitro in isolated rat uterus. Conditions: compound 2 × 10^-6 M, PGF2alpha 1.4 × 10^-7 M, read-out: Percentual inhibition at concentrations of 2 × 10^-6 M against 1.4 × 10^-7 M PGF2alpha. The text has this: (§1) In vitro, in the isolated rat uterus (Table 1), and in vivo in rabbits under urethane anesthesis (Table 2) they antagonize the uterine contraction inducing activity of PGF2alpha. The competitive antagonist effect of the compounds is selective and protracted, while it fails to influence the uterine contraction inducing effect of other endogeneous compounds, i.e. oxytocin. This would enable their use as spasmolytic agents of new mechanism of action in the field of obstetrics and gynecology for the treatment of dysmenorrhea and anovulation, and the prevention of imminent and habitual abortus and miscarriage.
PGF2alpha antagonist effect of the compounds of general
formula (I) in vitro in isolated rat uterus
Method: 1. J. H. Gaddum and K. A. Hammed:
2. O. Arunlakshana and H. O Schild:
Compound Percentual inhibition at concentrations

Data set [2] has as its system PGF2alpha receptor. In words: In vivo PGF2alpha antagonist effect in urethane anesthesized rabbits. Conditions: PGF2alpha 6.25 μg/kg iv; for Duration of the effect: rabbits; for Inhibition: urethane anesthesized rabbits.
Description: as §1
In vivo PGF2alpha antagonist effect of pyrazole deriva-
tives of general formula (I) in urethane (1.2 g/kg iv)
1. D. F. Hawkins: Agents Acting on the Uterus.
In: Evaluation of Drug Activities: Pharma-
cometrics. Edited by R. Lawrence and A. L.
Bacharach. Academic Press, London, p. 680 (1964)
2. A. R. Cushny: J. Physiol. 35, 1 (1906)
PGF2alpha standard dose: 6.25 μg/kg iv

Data set [3] in a line: Acute toxicity in CFLP mice (Probite analysis according to Litchfield-Wilcoxon). Conditions: mouse, in vivo. From the text: Acute toxicity of pyrazole derivatives of
general formula (I) in CFLP mice
Method: Probite analysis according to Litchfield-
Wilcoxon [J. Pharm. Exp. Ther. 96, 99 (1949)]

The next data set concerns uterine musculature. Conditions: known compounds with ergoline skeleton; cited from earlier work.

Where a name gives a salt, the structure may show the parent alone. Read-outs that look alike come from different tables or passages of the source.

T1 sequence (P43118 whole entry): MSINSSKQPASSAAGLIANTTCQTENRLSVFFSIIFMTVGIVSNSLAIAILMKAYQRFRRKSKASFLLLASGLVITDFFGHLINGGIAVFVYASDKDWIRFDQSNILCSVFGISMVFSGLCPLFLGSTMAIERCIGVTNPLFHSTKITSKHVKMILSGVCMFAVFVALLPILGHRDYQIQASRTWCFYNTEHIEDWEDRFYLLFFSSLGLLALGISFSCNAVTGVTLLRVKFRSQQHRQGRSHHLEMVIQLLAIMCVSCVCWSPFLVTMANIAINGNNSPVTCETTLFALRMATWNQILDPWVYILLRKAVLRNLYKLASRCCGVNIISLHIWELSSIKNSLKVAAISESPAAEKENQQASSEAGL

Broadly, the Inhibition is the percentage by which the read-out fell short of the control. Read a low Inhibition as a weak effect. Broadly, the LD50 is the dose at which mortality reaches 50%. `Cc1nn(C[C@@H]2C=C3c4cccc5[nH]cc(c45)C[C@H]3N(C)C2)c2c1CCC2` [Example 1, 8-beta-[3(5)-Methyl-cyclopentano/4,5(3,4)/pyrazol-1-yl-methylene]-6-methyl-ergol-9-ene]: the inhibition at 2 µM at PGF2alpha receptor [1] amounted to 70%. Moreover, the “Duration of the effect” value with PGF2alpha receptor [2] (0.3 mg/kg intraduodenal) and in the data set on PGF2alpha receptor [2] (1.0 mg/kg intraduodenal) was more than 180 min throughout. In addition, the figures for the Inhibition in the data set with PGF2alpha receptor [2] (0.3 mg/kg intraduodenal) and in the data set on PGF2alpha receptor [2] (1.0 mg/kg intraduodenal) were 38% and 49%, respectively. Also, the LD50 in data set [3] (ip, read-out: LD50 ip) stood at 3100 mg/kg; in data set [3] (po, read-out: LD50 po), 2450 mg/kg.

Take `Cc1nn(C[C@@H]2C=C3c4cccc5c4c(cn5C)C[C@H]3N(C)C2)c2c1CCC2` [Example 2, 8-beta-[3(5)-Methyl-cyclopentane/4,5(3,4)/pyrazol-1-yl-methylene]-1,6-dimethyl-ergol-9-ene hydrogen maleinate]: at PGF2alpha receptor [1], the inhibition at 2 µM was 58%. The LD50 in data set [3] (ip, read-out: LD50 ip) was more than 100 mg/kg; in data set [3] (po, read-out: LD50 po) it was more than 100 mg/kg.

For the compound `Cc1nn(C[C@@H]2C[C@@H]3c4cccc5[nH]cc(c45)C[C@H]3N(C)C2)c2c1CCC2` [Example 4, 8-beta-[3(5)-Methyl-cyclopentano/4,5(3,4)/pyrazol-1-yl-methylene]-6-methyl-ergoline], the LD50 in data set [3] (ip, read-out: LD50 ip) was more than 100 mg/kg; in data set [3] (po, read-out: LD50 po), more than 100 mg/kg.

`CN1C[C@H](Cn2nc(-c3cccnc3)c3c2CCC3)C=C2c3cccc4[nH]cc(c34)C[C@H]21` [Example 5, 8-beta-[3(5)-(3-Pyridyl)-cyclopentano/4,5(3,4)/pyrazol-1-yl-methylene]-6-methyl-ergol-9-ene]: on PGF2alpha receptor [1], the inhibition at 2 µM is 46%. Further, the LD50 in data set [3] (ip, read-out: LD50 ip) is more than 100 mg/kg; in data set [3] (po, read-out: LD50 po), more than 100 mg/kg.

As for `Cc1nn(C[C@@H]2C=C3c4cccc5[nH]cc(c45)C[C@H]3N(C)C2)c2c1C(=O)CC2` [Example 6, 8-beta-[3(6)-Methyl-4(5)-oxo-cyclopentano/4,5(3,4)/pyrazol-1-yl-methylene]-6-methyl-ergol-9-ene], the LD50 was more than 200 mg/kg in data set [3] (ip, read-out: LD50 ip) and 1000 mg/kg in data set [3] (po, read-out: LD50 po).

Turning to `Cc1nn(C[C@@H]2C=C3c4cccc5[nH]cc(c45)C[C@H]3N(C)C2)c2c1C(O)CC2` (stereo partly drawn) [Example 7, 8-beta-[3(6)-Methyl-4(5)-hydroxy-cyclopentano/4,5(3,4)/pyrazol-1-yl-methylene]-6-methyl-ergol-9-ene], the LD50 in data set [3] (ip, read-out: LD50 ip) is more than 100 mg/kg; in data set [3] (po, read-out: LD50 po) it was more than 100 mg/kg.

As to `Cc1nn(C[C@@H]2C=C3c4cccc5[nH]cc(c45)C[C@H]3N(C)C2)c2c1C(=NO)CC2` [Example 8, 8-beta-[3(6)-Methyl-4(5)-hydroxy-imino-cyclopentano/4,5(3,4)/pyrazol-1-yl-methylene]-6-methyl-ergol-9-ene], the LD50 in data set [3] (ip, read-out: LD50 ip) was more than 100 mg/kg; in data set [3] (po, read-out: LD50 po), more than 100 mg/kg.

On to `Cc1nn(C[C@@H]2C=C3c4cccc5[nH]cc(c45)C[C@H]3N(C)C2)c2c1CCCC2` [Example 9, 8-beta-[3(5)-Methyl-cyclohexano/4,5(3,4)/pyrazol-1-yl-methylene]-6-methyl-ergol-9-ene], for which, on PGF2alpha receptor [1], the inhibition at 2 µM came out at 40%. Moreover, the “Duration of the effect” value in the data set with PGF2alpha receptor [2] (3.0 mg/kg intraduodenal) and with PGF2alpha receptor [2] (10.0 mg/kg intraduodenal) was more than 180 min each time. In addition, the Inhibition is 58% in the data set with PGF2alpha receptor [2] (3.0 mg/kg intraduodenal) and 68% in the data set on PGF2alpha receptor [2] (10.0 mg/kg intraduodenal). Also, the LD50 in data set [3] (ip, read-out: LD50 ip) is more than 100 mg/kg; in data set [3] (po, read-out: LD50 po), more than 100 mg/kg.

Consider `Cc1nn(C[C@@H]2C=C3c4cccc5[nH]cc(c45)C[C@H]3N(C)C2)c2c1C(=O)CC(C)(C)C2` [Example 10], for which the inhibition at 2 µM at PGF2alpha receptor [1] was 66%. Also, in the data set on PGF2alpha receptor [2] (20.0 mg/kg intraduodenal), the “Duration of the effect” value was 90 min and the Inhibition worked out at 42%. In addition, in data set [3] (ip, read-out: LD50 ip), the LD50 is more than 100 mg/kg. Moreover, the LD50 in data set [3] (po, read-out: LD50 po) was more than 100 mg/kg.

Consider `Cc1nn(C[C@@H]2C=C3c4cccc5[nH]cc(c45)C[C@H]3N(C)C2)c2c1C(=NO)CC(C)(C)C2` [Example 11, 8-beta-[3(7),6(4)-Trimethyl-4(6)-hydroxy-imino-cyclohexano/4,5(3,4)/pyrazol-1-yl-methylene]-6-methyl-ergol-9-ene], for which, at PGF2alpha receptor [1], the inhibition at 2 µM is 80%. In the data set with PGF2alpha receptor [2] (20.0 mg/kg intraduodenal), the “Duration of the effect” value was more than 120 min and the Inhibition is on record as 72%. Moreover, the LD50 in data set [3] (ip, read-out: LD50 ip) is more than 100 mg/kg. In addition, in data set [3] (po, read-out: LD50 po), the LD50 was more than 100 mg/kg.

Consider `C=CCc1c(C)nn(C[C@@H]2C=C3c4cccc5[nH]cc(c45)C[C@H]3N(C)C2)c1C` [Example 14, 8-beta-(3,5-Dimethyl-4-allyl-pyrazol-1-yl-methylene)-6-methyl-ergol-9-ene], for which the inhibition at 2 µM at PGF2alpha receptor [1] stood at 77%. The LD50 is more than 100 mg/kg in data set [3] (ip, read-out: LD50 ip) and more than 100 mg/kg in data set [3] (po, read-out: LD50 po).

`CCOC(=O)c1nn(C[C@@H]2C=C3c4cccc5[nH]cc(c45)C[C@H]3N(C)C2)c(O)c1C` [Example 15, 8-beta-(3-Carbethoxy-4-methyl-5-hydroxy-pyrazol-1-yl-methylene)-6-methyl-ergol-9-ene]: on PGF2alpha receptor [1], the inhibition at 2 µM stood at 40%. The LD50 in data set [3] (ip, read-out: LD50 ip) was more than 100 mg/kg; in data set [3] (po, read-out: LD50 po), more than 100 mg/kg.

As to `Cc1cc(-c2ccccn2)nn1C[C@@H]1C=C2c3cccc4[nH]cc(c34)C[C@H]2N(C)C1` [Example 16, 8-beta-[3(5)-/2-Pyridyl/-5(3)-methyl-pyrazol-1-yl-methylene]-6-methyl-ergol-9-ene], the inhibition at 2 µM at PGF2alpha receptor [1] was 18%. Besides, the LD50 in data set [3] (ip, read-out: LD50 ip) was more than 100 mg/kg; in data set [3] (po, read-out: LD50 po), more than 100 mg/kg.

As for `Cc1cc(-c2ccccn2)nn1C[C@@H]1C[C@@H]2c3cccc4[nH]cc(c34)C[C@H]2N(C)C1` [Example 17, 8-beta-[3(5)-/2-Pyridyl/-5(3)-methyl-pyrazol-1-yl-methylene]-6-methyl-ergoline], the inhibition at 2 µM on PGF2alpha receptor [1] came out at 44%. In addition, the “Duration of the effect” value in the data set with PGF2alpha receptor [2] (10.0 mg/kg intraduodenal) was 120 min; in the data set with PGF2alpha receptor [2] (20.0 mg/kg intraduodenal), more than 150 min. Moreover, the Inhibition with PGF2alpha receptor [2] (10.0 mg/kg intraduodenal) worked out at 55%; in the data set with PGF2alpha receptor [2] (20.0 mg/kg intraduodenal), 77%. Also, the LD50 in data set [3] (ip, read-out: LD50 ip) was more than 100 mg/kg; in data set [3] (po, read-out: LD50 po), more than 100 mg/kg.

`CC(=O)c1c(C)nn(C[C@@H]2C=C3c4cccc5[nH]cc(c45)C[C@H]3N(C)C2)c1C` [Example 18, 8-beta-[3,5-Dimethyl-4-(1-oxo-ethyl)-pyrazol-1-yl-methylene]-6-methyl-ergol-9-ene]: the LD50 was more than 100 mg/kg in data set [3] (ip, read-out: LD50 ip) and more than 100 mg/kg in data set [3] (po, read-out: LD50 po).

With `Cc1nn(C[C@@H]2C=C3c4cccc5[nH]cc(c45)C[C@H]3N(C)C2)c2c1CCC2` [Hydrogen-fumarate of 1, 8-beta-[3(5)-methyl-cyclopentano/4,5(3,4)/pyrazol-1-yl-methylene]-6-methyl-ergol-9-ene hydrogen fumarate], in the data set on PGF2alpha receptor [2] (3.0 mg/kg intraduodenal), the “Duration of the effect” value is more than 180 min and the Inhibition was determined as 63%.

For `CC(C)C[C@H]1C(=O)N2CCC[C@H]2[C@]2(O)O[C@](NC(=O)[C@@H]3C=C4c5cccc6[nH]c(Br)c(c56)C[C@H]4N(C)C3)(C(C)C)C(=O)N12` [bromocryptine], the “effect on the uterine musculature” value in the data set on uterine musculature was “uterine relaxants”.

In the case of `CN1C[C@H](C(=O)N[C@]2(C)O[C@@]3(O)[C@@H]4CCCN4C(=O)[C@H](Cc4ccccc4)N3C2=O)C[C@@H]2c3cccc4[nH]cc(c34)C[C@H]21` [dihydroergotamine], the “effect on the uterine musculature” value with uterine musculature is recorded as “uterine relaxants”.

Consider `C[C@@H](CO)NC(=O)[C@@H]1C=C2c3cccc4[nH]cc(c34)C[C@H]2N(C)C1` [ergometrin], for which, in the data set with uterine musculature, the “effect on the uterine musculature” value is on record as “inducing uterine contraction”.

On to `CN1C[C@H](C(=O)N[C@]2(C)O[C@@]3(O)[C@@H]4CCCN4C(=O)[C@H](Cc4ccccc4)N3C2=O)C=C2c3cccc4[nH]cc(c34)C[C@H]21` [ergotamine], for which, in the data set with uterine musculature, the “effect on the uterine musculature” value is “inducing uterine contraction”.

On to `CC[C@@H](CO)NC(=O)[C@@H]1C=C2c3cccc4[nH]cc(c34)C[C@H]2N(C)C1` [methylergometrin], for which the “effect on the uterine musculature” value in the data set on uterine musculature is on record as “inducing uterine contraction”.

Regarding hydergine, the “effect on the uterine musculature” value in the data set with uterine musculature was “uterine relaxants”.
